How the values were obtained:
[1] = molecular target: Cathepsin S (Homo sapiens, UniProt P25774); assay: Inhibition of human recombinant cathepsin S expressed in baculovirus by FRET assay
[2] = molecular target: Cathepsin S (Mus musculus, UniProt O70370); assay: Inhibition of mouse cathepsin S expressed in baculovirus by FRET assay
[3] = molecular target: Cathepsin B (Homo sapiens, UniProt P07858); assay: Inhibition of human cathepsin B
[4] = molecular target: T1, Cathepsin F (Homo sapiens, UniProt Q9UBX1); assay: Inhibition of human cathepsin F
T1 sequence (Q9UBX1 whole entry): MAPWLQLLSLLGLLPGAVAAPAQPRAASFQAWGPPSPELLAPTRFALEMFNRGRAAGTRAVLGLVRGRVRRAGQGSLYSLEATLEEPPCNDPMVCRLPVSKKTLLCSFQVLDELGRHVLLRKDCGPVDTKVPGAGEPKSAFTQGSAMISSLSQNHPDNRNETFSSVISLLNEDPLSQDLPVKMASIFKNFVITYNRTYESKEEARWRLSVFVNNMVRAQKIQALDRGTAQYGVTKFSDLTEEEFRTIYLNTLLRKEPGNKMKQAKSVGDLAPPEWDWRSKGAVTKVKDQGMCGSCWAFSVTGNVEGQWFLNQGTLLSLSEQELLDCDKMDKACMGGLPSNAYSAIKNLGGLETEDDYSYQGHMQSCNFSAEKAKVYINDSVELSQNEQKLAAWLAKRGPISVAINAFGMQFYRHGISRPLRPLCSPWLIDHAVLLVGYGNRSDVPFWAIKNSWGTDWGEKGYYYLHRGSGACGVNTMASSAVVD

[5] = molecular target: Procathepsin L (Homo sapiens, UniProt P07711); assay: Inhibition of human cathepsin L
Chain of Procathepsin L (P07711 whole entry): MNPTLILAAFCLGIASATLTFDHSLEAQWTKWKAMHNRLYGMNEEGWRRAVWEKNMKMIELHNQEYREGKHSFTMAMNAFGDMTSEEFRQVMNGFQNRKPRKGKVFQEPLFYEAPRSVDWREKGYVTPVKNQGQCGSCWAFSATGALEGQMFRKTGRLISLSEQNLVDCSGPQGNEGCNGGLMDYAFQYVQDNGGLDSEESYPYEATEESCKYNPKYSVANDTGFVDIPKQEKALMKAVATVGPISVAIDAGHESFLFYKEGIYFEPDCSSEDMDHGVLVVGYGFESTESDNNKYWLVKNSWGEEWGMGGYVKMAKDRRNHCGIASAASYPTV

[6] = Cmax in Sprague-Dawley rat at 10 mg/kg, po; format: ADME, organism-based; design: dose 10 mg/kg, route oral; conditions: in vivo
[7] = system: Rattus norvegicus; assay: AUC in Sprague-Dawley rat at 10 mg/kg, po; format: ADME, organism-based, Plasma; design: dose 10 mg/kg, route oral; conditions: in vivo
[8] = Half life in Sprague-Dawley rat at 2 mg/kg, iv; format: ADME, organism-based; design: dose 2 mg/kg, route intravenous; conditions: in vivo
[9] = Clearance in Sprague-Dawley rat at 2 mg/kg, iv; format: ADME, organism-based; design: dose 2 mg/kg, route intravenous; conditions: in vivo
[10] = Bioavailability in Sprague-Dawley rat at 2 mg/kg, iv; format: ADME, organism-based; conditions: in vivo

Chain of Cathepsin S (Homo sapiens, UniProt P25774) (P25774 whole entry): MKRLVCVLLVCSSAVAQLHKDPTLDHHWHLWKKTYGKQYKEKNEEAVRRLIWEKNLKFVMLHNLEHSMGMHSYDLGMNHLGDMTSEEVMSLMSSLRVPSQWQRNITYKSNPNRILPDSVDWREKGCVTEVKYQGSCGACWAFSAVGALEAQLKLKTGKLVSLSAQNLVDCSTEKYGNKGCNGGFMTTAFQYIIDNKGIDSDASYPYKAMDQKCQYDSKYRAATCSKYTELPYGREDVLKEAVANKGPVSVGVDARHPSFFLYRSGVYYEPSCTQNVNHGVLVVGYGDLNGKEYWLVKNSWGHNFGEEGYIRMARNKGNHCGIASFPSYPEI
Chain of Cathepsin S (Mus musculus, UniProt O70370) (O70370 whole entry): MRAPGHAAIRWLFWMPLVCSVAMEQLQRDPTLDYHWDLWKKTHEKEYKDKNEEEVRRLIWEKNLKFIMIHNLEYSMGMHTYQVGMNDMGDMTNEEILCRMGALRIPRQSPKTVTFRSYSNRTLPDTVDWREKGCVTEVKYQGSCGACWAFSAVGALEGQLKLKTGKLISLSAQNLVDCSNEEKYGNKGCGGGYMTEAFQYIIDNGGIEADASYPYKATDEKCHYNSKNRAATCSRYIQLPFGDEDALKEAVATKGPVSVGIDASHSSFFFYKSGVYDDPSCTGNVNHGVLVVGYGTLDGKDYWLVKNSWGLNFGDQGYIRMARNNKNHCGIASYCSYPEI

SMILES | IC50 [1] [µM] | further results
CS(=O)(=O)N1CCc2c(c(-c3ccc(Cl)c(C#Cc4cccc(C(F)(F)F)c4)c3)nn2CCCN2CCOCC2)C1 | 1.5 | 
CS(=O)(=O)N1CCc2c(c(-c3ccc(Cl)c(C#Cc4ccsc4)c3)nn2CCCN2CCOCC2)C1 | 1.5 | 
CC#Cc1cc(-c2nn(CCCN3CCOCC3)c3c2CN(S(C)(=O)=O)CC3)ccc1Cl | 7.4 | 
CCCCC#Cc1cc(-c2nn(CCCN3CCOCC3)c3c2CN(S(C)(=O)=O)CC3)ccc1Cl | 11 | 
Cc1ccccc1C#Cc1cc(-c2nn(CCCN3CCOCC3)c3c2CN(S(C)(=O)=O)CC3)ccc1Cl | 1.1 | 
CS(=O)(=O)N1CCc2c(c(-c3ccc(Cl)c(C#Cc4ccc(Cl)cc4)c3)nn2CCCN2CCOCC2)C1 |  | IC50 [2]: 0.69 µM; IC50 [3]: > 20 µM; IC50 [4]: > 20 µM; IC50 [5]: > 20 µM; Cmax [6]: 0.53 µM; AUC [7]: 48 uM.hr/L; half-life [8]: 2 h; clearance [9]: 3 mL/min; bioavailability [10]: 21%

More lines, in order of falling IC50 [1], values ahead:

IC50 [1] [µM] | SMILES | further results
0.55 | COc1ccccc1C#Cc1cc(-c2nn(CCCN3CCOCC3)c3c2CN(S(C)(=O)=O)CC3)ccc1Cl | 
0.51 | CS(=O)(=O)N1CCc2c(c(-c3ccc(Cl)c(C#Cc4ccc(C(=O)O)cc4)c3)nn2CCCN2CCOCC2)C1 | 
0.48 | COc1ccc(C#Cc2cc(-c3nn(CCCN4CCOCC4)c4c3CN(S(C)(=O)=O)CC4)ccc2Cl)cc1 | 
0.43 | CS(=O)(=O)N1CCc2c(c(-c3ccc(Cl)c(C#Cc4ccc(N)cc4)c3)nn2CCCN2CCOCC2)C1 | 
0.33 | O=C(c1ccco1)N1CCc2c(c(-c3ccc(Cl)c(C#Cc4ccc(Cl)cc4)c3)nn2CCCN2CCOCC2)C1 | 
0.28 | CS(=O)(=O)N1CCc2c(c(-c3ccc(Cl)c(C#Cc4ccc(C(F)(F)F)cc4)c3)nn2CCCN2CCOCC2)C1 | 
0.04 | COC(=O)N1CCc2c(c(-c3ccc(Cl)c(C#Cc4ccc(Cl)cc4)c3)nn2CCCN2CCOCC2)C1 | 

From ChEMBL document CHEMBL1154163, “Pyrazole-based cathepsin S inhibitors with arylalkynes as P1 binding elements” (Bioorg Med Chem Lett, 2009)
